tested on: MDR1 (P-gp); experiment: Efflux ratio of permeability from basolateral to apical side over apical to basolateral side in MDCK2-MDR1 cells; type: ADME, cell-based, Canis lupus familiaris; conditions: dog, MDCK-MDR1

Row | SMILES | efflux ratio
1 | COc1cc2ncnc(Nc3cccc(Cl)c3F)c2cc1OC(=O)N1CCN(C)CC1 | 0.37
2 | COc1cc2ncnc(Nc3cccc(Cl)c3F)c2cc1OC(=O)N1CCN(C)[C@H](C)C1 | 0.94
3 | COc1cc2ncnc(Nc3cccc(Cl)c3F)c2cc1CN1CCOCC1 | 0.33
4 | COc1cc2ncnc(Nc3cccc(Cl)c3F)c2cc1OC(=O)N1CC[C@@H](N(C)C)C1 | 0.76

tested on: not listed separately; experiment: Fraction unbound in Han Wistar rat blood at 5 uM by equilibrium dialysis method; type: ADME, tissue-based; conditions: Han Wistar

Row | SMILES | fraction unbound at 5 µM
5 | COc1cc2ncnc(Nc3cccc(Cl)c3F)c2cc1OC(=O)N1CCN(C)CC1 | 0.084
6 | COc1cc2ncnc(Nc3cccc(Cl)c3F)c2cc1OC(=O)N1CCN(C)[C@H](C)C1 | 0.064
7 | COc1cc2ncnc(Nc3cccc(Cl)c3F)c2cc1CN1CCOCC1 | 0.078
8 | COc1cc2ncnc(Nc3cccc(Cl)c3F)c2cc1OC(=O)N1CC[C@@H](N(C)C)C1 | 0.058

tested on: not listed separately; experiment: Fraction unbound in Han Wistar rat brain at 5 uM by equilibrium dialysis method; type: ADME, tissue-based; conditions: Han Wistar, brain

Row | SMILES | fraction unbound at 5 µM
9 | COc1cc2ncnc(Nc3cccc(Cl)c3F)c2cc1OC(=O)N1CCN(C)CC1 | 0.025
10 | COc1cc2ncnc(Nc3cccc(Cl)c3F)c2cc1OC(=O)N1CCN(C)[C@H](C)C1 | 0.018
11 | COc1cc2ncnc(Nc3cccc(Cl)c3F)c2cc1CN1CCOCC1 | 0.03
12 | COc1cc2ncnc(Nc3cccc(Cl)c3F)c2cc1OC(=O)N1CC[C@@H](N(C)C)C1 | 0.023

tested on: not listed separately; experiment: Elimination half life in Han Wistar rat at 2 mg/kg, po; type: ADME, organism-based; conditions: in vivo, read-out: beta t1/2 (converted)

Row | SMILES | half-life [h]
13 | COc1cc2ncnc(Nc3cccc(Cl)c3F)c2cc1CN1CCOCC1 | 1.1

tested on: not listed separately; experiment: Oral bioavailability in Han Wistar rat at 2 mg/kg; type: ADME, organism-based; conditions: Han Wistar, in vivo

Row | SMILES | bioavailability [%]
14 | COc1cc2ncnc(Nc3cccc(Cl)c3F)c2cc1OC(=O)N1CCN(C)[C@H](C)C1 | 92
15 | COc1cc2ncnc(Nc3cccc(Cl)c3F)c2cc1CN1CCOCC1 | 44

molecular target: Cytochrome P450 2C9 (Homo sapiens, UniProt P11712); experiment: Inhibition of human CYP2C9; type: ADME; conditions: not given
Sequence (P11712 whole entry): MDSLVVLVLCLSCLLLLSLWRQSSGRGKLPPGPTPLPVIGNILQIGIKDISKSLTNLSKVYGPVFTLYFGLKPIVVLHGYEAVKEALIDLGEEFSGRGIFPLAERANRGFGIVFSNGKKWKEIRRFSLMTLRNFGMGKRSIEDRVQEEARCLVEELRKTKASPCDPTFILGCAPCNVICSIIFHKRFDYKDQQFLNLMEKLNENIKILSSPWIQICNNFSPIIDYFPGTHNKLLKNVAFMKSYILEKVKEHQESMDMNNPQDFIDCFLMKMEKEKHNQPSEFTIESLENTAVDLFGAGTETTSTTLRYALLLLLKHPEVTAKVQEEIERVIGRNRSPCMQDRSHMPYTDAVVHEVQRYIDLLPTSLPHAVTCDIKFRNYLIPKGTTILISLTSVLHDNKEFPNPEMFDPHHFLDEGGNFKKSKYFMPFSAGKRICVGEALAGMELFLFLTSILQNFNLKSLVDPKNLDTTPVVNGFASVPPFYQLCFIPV

Row | SMILES | IC50 [nM]
16 | COc1cc2ncnc(Nc3cccc(Cl)c3F)c2cc1CN1CCOCC1 | > 10000

molecular target: Cytochrome P450 2D6 (Homo sapiens, UniProt P10635); experiment: Inhibition of human CYP2D6; type: ADME; conditions: not given
Sequence (P10635 whole entry): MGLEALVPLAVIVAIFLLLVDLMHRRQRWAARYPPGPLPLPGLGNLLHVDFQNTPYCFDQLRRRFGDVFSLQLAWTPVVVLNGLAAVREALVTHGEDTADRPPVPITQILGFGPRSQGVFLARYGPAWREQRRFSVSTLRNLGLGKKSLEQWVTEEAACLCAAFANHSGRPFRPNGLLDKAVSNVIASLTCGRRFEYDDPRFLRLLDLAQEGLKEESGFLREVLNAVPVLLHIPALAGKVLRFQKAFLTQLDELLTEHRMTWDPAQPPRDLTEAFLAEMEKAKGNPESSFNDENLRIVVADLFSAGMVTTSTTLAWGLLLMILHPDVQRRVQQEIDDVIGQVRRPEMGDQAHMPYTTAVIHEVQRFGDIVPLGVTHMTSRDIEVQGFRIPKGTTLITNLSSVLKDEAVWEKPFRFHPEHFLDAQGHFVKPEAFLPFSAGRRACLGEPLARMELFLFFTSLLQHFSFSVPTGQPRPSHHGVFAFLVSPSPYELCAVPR

Row | SMILES | IC50 [nM]
17 | COc1cc2ncnc(Nc3cccc(Cl)c3F)c2cc1CN1CCOCC1 | > 10000

molecular target: Cytochrome P450 3A4 (Homo sapiens, UniProt P08684); experiment: Inhibition of human CYP3A4; type: ADME; conditions: not given
Sequence (P08684 whole entry): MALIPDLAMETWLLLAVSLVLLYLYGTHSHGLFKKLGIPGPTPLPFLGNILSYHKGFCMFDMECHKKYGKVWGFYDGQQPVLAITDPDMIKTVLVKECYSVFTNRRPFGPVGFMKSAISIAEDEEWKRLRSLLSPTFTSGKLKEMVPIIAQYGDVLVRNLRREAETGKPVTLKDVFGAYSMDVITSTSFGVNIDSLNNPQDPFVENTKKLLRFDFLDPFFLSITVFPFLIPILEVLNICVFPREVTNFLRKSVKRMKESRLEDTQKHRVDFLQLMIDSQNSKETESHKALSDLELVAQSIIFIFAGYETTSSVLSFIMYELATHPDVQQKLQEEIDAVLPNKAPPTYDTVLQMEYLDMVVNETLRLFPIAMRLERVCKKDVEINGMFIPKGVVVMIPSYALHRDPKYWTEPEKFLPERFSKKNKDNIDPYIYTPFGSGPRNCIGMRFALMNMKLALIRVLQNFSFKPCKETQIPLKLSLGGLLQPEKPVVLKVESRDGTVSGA

Row | SMILES | IC50 [nM]
18 | COc1cc2ncnc(Nc3cccc(Cl)c3F)c2cc1CN1CCOCC1 | > 10000

molecular target: Voltage-gated inwardly rectifying potassium channel KCNH2 (Homo sapiens, UniProt Q12809); experiment: Inhibition of human ERG by patch clamp assay; conditions: not given
Sequence (Q12809 whole entry): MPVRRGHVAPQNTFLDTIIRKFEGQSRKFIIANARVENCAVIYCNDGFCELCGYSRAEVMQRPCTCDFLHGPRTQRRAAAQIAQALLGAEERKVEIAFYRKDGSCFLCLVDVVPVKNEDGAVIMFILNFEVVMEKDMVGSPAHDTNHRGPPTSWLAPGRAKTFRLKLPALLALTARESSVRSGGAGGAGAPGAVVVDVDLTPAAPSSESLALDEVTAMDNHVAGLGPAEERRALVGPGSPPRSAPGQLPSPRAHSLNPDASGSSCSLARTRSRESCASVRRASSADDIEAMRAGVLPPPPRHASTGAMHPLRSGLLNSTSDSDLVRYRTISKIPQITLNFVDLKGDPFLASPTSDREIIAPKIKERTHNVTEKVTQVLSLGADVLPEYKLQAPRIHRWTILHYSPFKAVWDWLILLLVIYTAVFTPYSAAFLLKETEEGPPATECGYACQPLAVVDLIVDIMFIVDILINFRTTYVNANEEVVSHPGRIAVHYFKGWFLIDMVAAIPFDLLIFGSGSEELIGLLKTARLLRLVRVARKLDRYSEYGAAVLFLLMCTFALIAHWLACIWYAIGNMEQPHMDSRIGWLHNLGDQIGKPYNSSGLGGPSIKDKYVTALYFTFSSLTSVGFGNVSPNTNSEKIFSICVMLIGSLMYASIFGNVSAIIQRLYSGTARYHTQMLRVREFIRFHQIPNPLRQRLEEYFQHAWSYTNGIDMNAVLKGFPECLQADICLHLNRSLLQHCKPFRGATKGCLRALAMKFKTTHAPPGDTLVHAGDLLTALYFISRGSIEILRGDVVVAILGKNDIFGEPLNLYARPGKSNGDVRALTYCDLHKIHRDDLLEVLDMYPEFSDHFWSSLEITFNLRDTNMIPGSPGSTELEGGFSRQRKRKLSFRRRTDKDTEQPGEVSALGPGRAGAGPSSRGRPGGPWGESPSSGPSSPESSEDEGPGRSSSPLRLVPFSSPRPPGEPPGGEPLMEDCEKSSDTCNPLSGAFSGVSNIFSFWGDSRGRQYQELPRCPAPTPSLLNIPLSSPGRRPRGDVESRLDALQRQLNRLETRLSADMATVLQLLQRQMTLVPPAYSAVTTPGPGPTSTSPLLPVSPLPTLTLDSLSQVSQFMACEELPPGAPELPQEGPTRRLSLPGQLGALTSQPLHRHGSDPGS

Row | SMILES | IC50 [nM]
19 | COc1cc2ncnc(Nc3cccc(Cl)c3F)c2cc1CN1CCOCC1 | 17000

molecular target: Epidermal growth factor receptor (Homo sapiens, UniProt P00533, L858R); type: cell-based, H3255; conditions: not given
Sequence (P00533 25-1210 L858R limits assumed): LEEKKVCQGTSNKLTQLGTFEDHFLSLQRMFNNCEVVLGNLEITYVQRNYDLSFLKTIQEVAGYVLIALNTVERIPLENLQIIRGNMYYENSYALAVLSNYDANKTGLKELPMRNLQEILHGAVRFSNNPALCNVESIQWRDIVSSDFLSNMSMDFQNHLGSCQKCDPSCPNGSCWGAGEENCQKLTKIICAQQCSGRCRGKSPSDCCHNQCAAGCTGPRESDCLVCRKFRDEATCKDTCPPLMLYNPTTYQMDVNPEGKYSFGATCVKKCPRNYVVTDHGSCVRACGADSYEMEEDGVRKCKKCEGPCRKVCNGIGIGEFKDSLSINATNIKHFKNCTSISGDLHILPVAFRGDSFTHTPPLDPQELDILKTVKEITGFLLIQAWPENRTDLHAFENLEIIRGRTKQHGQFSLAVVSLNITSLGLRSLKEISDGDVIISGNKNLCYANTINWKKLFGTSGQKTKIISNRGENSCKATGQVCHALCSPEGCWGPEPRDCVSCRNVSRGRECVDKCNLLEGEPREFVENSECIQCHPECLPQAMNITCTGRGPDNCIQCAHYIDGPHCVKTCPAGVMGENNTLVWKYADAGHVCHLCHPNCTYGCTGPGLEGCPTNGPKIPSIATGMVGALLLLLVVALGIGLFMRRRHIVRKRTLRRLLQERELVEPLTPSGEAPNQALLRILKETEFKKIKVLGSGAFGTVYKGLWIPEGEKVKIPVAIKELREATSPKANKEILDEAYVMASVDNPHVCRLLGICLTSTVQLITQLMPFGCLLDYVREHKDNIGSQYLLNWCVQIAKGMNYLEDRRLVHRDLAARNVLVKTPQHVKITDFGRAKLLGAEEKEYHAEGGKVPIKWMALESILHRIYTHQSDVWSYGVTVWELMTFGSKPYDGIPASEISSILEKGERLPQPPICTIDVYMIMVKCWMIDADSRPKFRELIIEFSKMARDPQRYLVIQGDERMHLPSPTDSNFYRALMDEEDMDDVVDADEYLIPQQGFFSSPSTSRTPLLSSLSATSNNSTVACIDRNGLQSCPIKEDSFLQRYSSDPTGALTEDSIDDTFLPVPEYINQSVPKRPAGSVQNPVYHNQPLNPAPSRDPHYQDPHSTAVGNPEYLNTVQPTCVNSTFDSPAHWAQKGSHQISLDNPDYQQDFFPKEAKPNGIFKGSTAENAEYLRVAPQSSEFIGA

Row | SMILES | IC50 [nM]
20 | COc1cc2ncnc(Nc3cccc(Cl)c3F)c2cc1OC(=O)N1CCN(C)CC1 | 5
21 | COc1cc2ncnc(Nc3cccc(Cl)c3F)c2cc1OC(=O)N1CCN(C)[C@H](C)C1 | 21.5
22 | COc1cc2ncnc(Nc3cccc(Cl)c3F)c2cc1CN1CCOCC1 | 6.6
23 | COc1cc2ncnc(Nc3cccc(Cl)c3F)c2cc1OC(=O)N1CC[C@@H](N(C)C)C1 | 1.1

tested on: not listed separately; experiment: AUC (0 to 7 hrs) in Han Wistar rat brain at 2 mg/kg, po by LC-MS/MS analysis; type: ADME, organism-based; parameters: dose 2 mg/kg, time < 7 hr, route oral; conditions: Han Wistar, brain

Row | SMILES | AUC(0-t) at 7 h [µM·h]
24 | COc1cc2ncnc(Nc3cccc(Cl)c3F)c2cc1OC(=O)N1CCN(C)CC1 | 0.825
25 | COc1cc2ncnc(Nc3cccc(Cl)c3F)c2cc1OC(=O)N1CCN(C)[C@H](C)C1 | 0.417
26 | COc1cc2ncnc(Nc3cccc(Cl)c3F)c2cc1CN1CCOCC1 | 1.01
27 | COc1cc2ncnc(Nc3cccc(Cl)c3F)c2cc1OC(=O)N1CC[C@@H](N(C)C)C1 | 2.04

tested on: not listed separately; experiment: AUC (0 to 7 hrs) in Han Wistar rat CSF at 2 mg/kg, po by LC-MS/MS analysis; type: ADME, organism-based, Cerebrospinal fluid; parameters: time < 7 hr, dose 2 mg/kg, route oral; conditions: Han Wistar, CSF

Row | SMILES | AUC(0-t) at 7 h [µM·h]
28 | COc1cc2ncnc(Nc3cccc(Cl)c3F)c2cc1OC(=O)N1CCN(C)CC1 | 0.031
29 | COc1cc2ncnc(Nc3cccc(Cl)c3F)c2cc1OC(=O)N1CCN(C)[C@H](C)C1 | 0.007
30 | COc1cc2ncnc(Nc3cccc(Cl)c3F)c2cc1CN1CCOCC1 | 0.05
31 | COc1cc2ncnc(Nc3cccc(Cl)c3F)c2cc1OC(=O)N1CC[C@@H](N(C)C)C1 | 0.075

tested on: not listed separately; experiment: AUC (0 to 7 hrs) in Han Wistar rat blood at 2 mg/kg, po by LC-MS/MS analysis; type: ADME, organism-based; parameters: dose 2 mg/kg, time < 7 hr, route oral; conditions: Han Wistar, blood

Row | SMILES | AUC(0-t) at 7 h [µM·h]
32 | COc1cc2ncnc(Nc3cccc(Cl)c3F)c2cc1OC(=O)N1CCN(C)CC1 | 0.722
33 | COc1cc2ncnc(Nc3cccc(Cl)c3F)c2cc1OC(=O)N1CCN(C)[C@H](C)C1 | 0.404
34 | COc1cc2ncnc(Nc3cccc(Cl)c3F)c2cc1CN1CCOCC1 | 0.834
35 | COc1cc2ncnc(Nc3cccc(Cl)c3F)c2cc1OC(=O)N1CC[C@@H](N(C)C)C1 | 3

tested on: not listed separately; experiment: Ratio of unbound AUC (0 to 7 hrs) in brain to blood of Han Wistar rat at 2 mg/kg, po by LC-MS/MS analysis; type: ADME, organism-based; conditions: Han Wistar, brain and blood, read-out: K(p,uu,brain)

Row | SMILES | Kp uu
36 | COc1cc2ncnc(Nc3cccc(Cl)c3F)c2cc1OC(=O)N1CCN(C)CC1 | 0.34
37 | COc1cc2ncnc(Nc3cccc(Cl)c3F)c2cc1OC(=O)N1CCN(C)[C@H](C)C1 | 0.28
38 | COc1cc2ncnc(Nc3cccc(Cl)c3F)c2cc1CN1CCOCC1 | 0.47
39 | COc1cc2ncnc(Nc3cccc(Cl)c3F)c2cc1OC(=O)N1CC[C@@H](N(C)C)C1 | 0.27

tested on: not listed separately; experiment: Ratio of unbound AUC (0 to 7 hrs) in CSF to blood of Han Wistar rat at 2 mg/kg, po by LC-MS/MS analysis; type: ADME, organism-based; conditions: Han Wistar, CSF and blood

Row | SMILES | Kp uu
40 | COc1cc2ncnc(Nc3cccc(Cl)c3F)c2cc1OC(=O)N1CCN(C)CC1 | 0.52
41 | COc1cc2ncnc(Nc3cccc(Cl)c3F)c2cc1OC(=O)N1CCN(C)[C@H](C)C1 | 0.28
42 | COc1cc2ncnc(Nc3cccc(Cl)c3F)c2cc1CN1CCOCC1 | 0.76
43 | COc1cc2ncnc(Nc3cccc(Cl)c3F)c2cc1OC(=O)N1CC[C@@H](N(C)C)C1 | 0.43

tested on: not listed separately; experiment: Clearance in Han Wistar rat at 2 mg/kg, po; type: ADME, organism-based; conditions: in vivo

Row | SMILES | CL/F [mL/min/kg]
44 | COc1cc2ncnc(Nc3cccc(Cl)c3F)c2cc1CN1CCOCC1 | 59

tested on: Rattus norvegicus; experiment: Volume of distribution at steady state in Han Wistar rat at 2 mg/kg, […]; type: ADME, organism-based; conditions: in vivo

Row | SMILES | Vdss [L/kg]
45 | COc1cc2ncnc(Nc3cccc(Cl)c3F)c2cc1CN1CCOCC1 | 2.8

tested on: not listed separately; experiment: AUC(0 to 24 hrs) in Han Wistar rat at 5 mg/kg, po; type: ADME, organism-based; parameters: dose 5 mg/kg, time < 24 hr, route oral; conditions: in vivo

Row | SMILES | AUC(0-t) at 24 h [µM·h]
46 | COc1cc2ncnc(Nc3cccc(Cl)c3F)c2cc1OC(=O)N1CCN(C)CC1 | 3.91

tested on: not listed separately; experiment: Tmax in Han Wistar rat at 5 mg/kg, po; type: ADME, organism-based; conditions: in vivo

Row | SMILES | Tmax [h]
47 | COc1cc2ncnc(Nc3cccc(Cl)c3F)c2cc1OC(=O)N1CCN(C)CC1 | 0.25

tested on: not listed separately; experiment: Cmax in Han Wistar rat at 5 mg/kg, po; type: ADME, organism-based; parameters: dose 5 mg/kg, route oral; conditions: in vivo

Row | SMILES | Cmax [nM]
48 | COc1cc2ncnc(Nc3cccc(Cl)c3F)c2cc1OC(=O)N1CCN(C)CC1 | 2020

tested on: not listed separately; experiment: AUC(0 to 24 hrs) in Han Wistar rat at 1 mg/kg, iv; type: ADME, organism-based; parameters: time < 24 hr, dose 1 mg/kg, route intravenous; conditions: in vivo

Row | SMILES | AUC(0-t) at 24 h [µM·h]
49 | COc1cc2ncnc(Nc3cccc(Cl)c3F)c2cc1OC(=O)N1CCN(C)CC1 | 1.71

tested on: not listed separately; experiment: Elimination half life in Han Wistar rat at 1 mg/kg, iv; type: ADME, organism-based; conditions: Han Wistar, in vivo, read-out: beta t1/2 (converted)

Row | SMILES | half-life [h]
50 | COc1cc2ncnc(Nc3cccc(Cl)c3F)c2cc1OC(=O)N1CCN(C)CC1 | 2.6
51 | COc1cc2ncnc(Nc3cccc(Cl)c3F)c2cc1OC(=O)N1CCN(C)[C@H](C)C1 | 1.3

tested on: not listed separately; experiment: Clearance in Han Wistar rat at 1 mg/kg, iv; type: ADME, organism-based; conditions: in vivo

Row | SMILES | clearance [mL/min/kg]
52 | COc1cc2ncnc(Nc3cccc(Cl)c3F)c2cc1OC(=O)N1CCN(C)CC1 | 22
53 | COc1cc2ncnc(Nc3cccc(Cl)c3F)c2cc1OC(=O)N1CCN(C)[C@H](C)C1 | 55

tested on: not listed separately; experiment: Volume of distribution at steady state in Han Wistar rat at 1 mg/kg, iv; type: ADME, organism-based; conditions: Han Wistar, in vivo, read-out: Vdss

Row | SMILES | Vd [L/kg]
54 | COc1cc2ncnc(Nc3cccc(Cl)c3F)c2cc1OC(=O)N1CCN(C)CC1 | 1.8
55 | COc1cc2ncnc(Nc3cccc(Cl)c3F)c2cc1OC(=O)N1CCN(C)[C@H](C)C1 | 3.2

tested on: not listed separately; experiment: Oral bioavailability in Han Wistar rat at 5 mg/kg; type: ADME, organism-based; conditions: in vivo

Row | SMILES | bioavailability [%]
56 | COc1cc2ncnc(Nc3cccc(Cl)c3F)c2cc1OC(=O)N1CCN(C)CC1 | 45

tested on: not listed separately; experiment: AUC(0 to 24 hrs) in Han Wistar rat at 2 mg/kg, po; type: ADME, organism-based; parameters: dose 2 mg/kg, time < 24 hr, route oral; conditions: Han Wistar, in vivo

Row | SMILES | AUC(0-t) at 24 h [µM·h]
57 | COc1cc2ncnc(Nc3cccc(Cl)c3F)c2cc1OC(=O)N1CCN(C)[C@H](C)C1 | 1.04

tested on: not listed separately; experiment: Drug metabolism in rat hepatocytes assessed as piperazine oxidation; type: ADME, cell-based, Hepatocyte; conditions: not given

Row | SMILES | Drug metabolism
58 | COc1cc2ncnc(Nc3cccc(Cl)c3F)c2cc1OC(=O)N1CCN(C)CC1 | metabolite_detected

molecular target: Epidermal growth factor receptor (Homo sapiens, UniProt P00533, EX19DEL); experiment: Inhibition of EGFR exon19 deletion mutant phosphorylation in human PC9 cells; type: cell-based, PC-9; conditions: not given
Sequence (P00533 whole entry, looked up, stated change not applied): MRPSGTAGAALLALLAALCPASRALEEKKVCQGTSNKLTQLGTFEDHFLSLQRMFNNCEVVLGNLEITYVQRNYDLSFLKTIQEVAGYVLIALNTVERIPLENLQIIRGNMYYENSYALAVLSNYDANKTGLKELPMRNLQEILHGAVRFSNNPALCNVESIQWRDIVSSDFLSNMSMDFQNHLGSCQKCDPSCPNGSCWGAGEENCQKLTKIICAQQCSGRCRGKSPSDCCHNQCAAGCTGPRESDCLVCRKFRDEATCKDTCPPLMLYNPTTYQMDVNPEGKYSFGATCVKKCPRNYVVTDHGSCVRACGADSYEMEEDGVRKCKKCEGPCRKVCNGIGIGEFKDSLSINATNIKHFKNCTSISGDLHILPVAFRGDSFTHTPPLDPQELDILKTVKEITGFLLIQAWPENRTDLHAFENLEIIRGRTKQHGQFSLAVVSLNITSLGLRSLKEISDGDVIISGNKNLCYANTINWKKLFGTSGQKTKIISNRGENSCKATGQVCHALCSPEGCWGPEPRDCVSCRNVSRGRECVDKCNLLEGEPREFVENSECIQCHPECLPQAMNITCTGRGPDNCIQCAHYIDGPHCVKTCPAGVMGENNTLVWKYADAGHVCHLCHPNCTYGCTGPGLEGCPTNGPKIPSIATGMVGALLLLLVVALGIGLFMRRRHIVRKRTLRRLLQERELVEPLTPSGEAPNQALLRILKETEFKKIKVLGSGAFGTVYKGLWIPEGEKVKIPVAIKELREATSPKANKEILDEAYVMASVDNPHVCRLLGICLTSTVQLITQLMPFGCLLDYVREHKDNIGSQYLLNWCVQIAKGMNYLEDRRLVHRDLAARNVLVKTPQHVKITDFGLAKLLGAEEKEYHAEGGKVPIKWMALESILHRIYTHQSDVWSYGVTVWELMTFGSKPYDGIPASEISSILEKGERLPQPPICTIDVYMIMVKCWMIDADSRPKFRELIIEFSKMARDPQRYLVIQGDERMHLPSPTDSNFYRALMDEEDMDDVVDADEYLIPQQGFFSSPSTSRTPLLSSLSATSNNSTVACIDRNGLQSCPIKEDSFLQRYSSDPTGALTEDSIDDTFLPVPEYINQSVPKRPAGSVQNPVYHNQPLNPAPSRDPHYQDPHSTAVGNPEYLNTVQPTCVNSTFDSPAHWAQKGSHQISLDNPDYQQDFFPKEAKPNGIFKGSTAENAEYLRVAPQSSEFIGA

Row | SMILES | IC50 [nM]
59 | COc1cc2ncnc(Nc3cccc(Cl)c3F)c2cc1CN1CCOCC1 | 3.8

tested on: not listed separately; experiment: Permeability from apical to basolateral side in MDCK2-MDR1 cells; type: ADME, cell-based, Canis lupus familiaris, MDCK-II; conditions: dog, MDCK-MDR1

Row | SMILES | Papp A→B [×10⁻⁶ cm/s]
60 | COc1cc2ncnc(Nc3cccc(Cl)c3F)c2cc1OC(=O)N1CCN(C)CC1 | 28
61 | COc1cc2ncnc(Nc3cccc(Cl)c3F)c2cc1OC(=O)N1CCN(C)[C@H](C)C1 | 54
62 | COc1cc2ncnc(Nc3cccc(Cl)c3F)c2cc1CN1CCOCC1 | 32
63 | COc1cc2ncnc(Nc3cccc(Cl)c3F)c2cc1OC(=O)N1CC[C@@H](N(C)C)C1 | 47
